Experimental data reported in the supplement of paper PMC10307832.

Columns and labels:
Assay in all cases: relative viability (nuclei count vs DMSO), 5 days (fraction); higher = more cells survive
[1] = compound: C1COCCN1C2=NC(=NC3=C2OC4=C3C=CC=N4)C5=CC(=CC=C5)NC(=O)C6=CN=C(C=C6)N + NC(=O)Nc1cc(-c2cccc(F)c2)sc1C(=O)N[C@H]1CCCNC1 [AZD7762] (partner 0.2 µM)
Procedure, shortened: (§1)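 Lung cancer cell lines, seeded in 1536-well plates, were treated the following day by pin tool with a single drug or with five library-drug doses (not always all listed) in √10 steps on top of a fixed anchor-drug dose. Cells were fixed and nuclei stained in one step after 5 days, and nuclei were counted. Relative viability is the nuclei count for treated wells divided by that for vehicle wells, reported as medians of duplicate plates.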

[2] = compound: C1COCCN1C2=NC(=NC3=C2OC4=C3C=CC=N4)C5=CC(=CC=C5)NC(=O)C6=CN=C(C=C6)N + Nc1nc2[nH]cc(CCc3ccc(C(=O)N[C@@H](CCC(=O)O)C(=O)O)cc3)c2c(=O)[nH]1 [Pemetrexed] (partner 0.2 µM)
Procedure, shortened: as §1

[3] = compound: C1COCCN1C2=NC(=NC3=C2OC4=C3C=CC=N4)C5=CC(=CC=C5)NC(=O)C6=CN=C(C=C6)N + Nc1ncn([C@H]2C[C@H](O)[C@@H](CO)O2)c(=O)n1 [Decitabine] (partner 2 µM)
Procedure, shortened: as §1

Entinostat + Trametinib = compound: Nc1ccccc1NC(=O)c1ccc(CNC(=O)OCc2cccnc2)cc1 [Entinostat] + CC(=O)Nc1cccc(-n2c(=O)n(C3CC3)c(=O)c3c(Nc4ccc(I)cc4F)n(C)c(=O)c(C)c32)c1 [Trametinib] (partner 0.02 µM)
Procedure, shortened: as §1

| Cell Line | relative viability ([1]; first compound 0.02 µM) | relative viability ([1]; first compound 0.06325 µM) | relative viability ([1]; first compound 0.2 µM) | relative viability ([1]; first compound 0.6325 µM) | relative viability ([1]; first compound 2 µM) | relative viability ([2]; first compound 0.02 µM) | relative viability ([2]; first compound 0.06325 µM) | relative viability ([2]; first compound 0.2 µM) | relative viability ([2]; first compound 0.6325 µM) | relative viability ([2]; first compound 2 µM) | relative viability ([3]; first compound 0.02 µM) | relative viability ([3]; first compound 0.06325 µM) | relative viability ([3]; first compound 0.2 µM) | relative viability ([3]; first compound 0.6325 µM) | relative viability ([3]; first compound 2 µM) | relative viability (Entinostat + Trametinib; first compound 0.02 µM) | relative viability (Entinostat + Trametinib; first compound 0.06325 µM) | relative viability (Entinostat + Trametinib; first compound 0.2 µM) | relative viability (Entinostat + Trametinib; first compound 0.6325 µM) | relative viability (Entinostat + Trametinib; first compound 2 µM) |
| --- | --- | --- | --- | --- | --- | --- | --- | --- | --- | --- | --- | --- | --- | --- | --- | --- | --- | --- | --- | --- |
| 201T | 0.655 | 0.626 | 0.603 | 0.509 | 0.534 | 0.285 | 0.301 | 0.307 | 0.38 | 0.34 | 0.864 | 0.856 | 0.872 | 0.862 | 0.785 | 0.746 | 0.72 | 0.684 | 0.716 | 0.545 |
| A549 | – | – | – | – | – | – | – | – | – | – | – | 0.362 | 0.265 | 0.238 | 0.256 | – | – | – | – | – |
| A-427 | 0.788 | 0.746 | 0.673 | 0.655 | 0.689 | 1 | 0.985 | 0.944 | 0.914 | 0.739 | 0.588 | 0.512 | 0.619 | 0.679 | 0.579 | 0.882 | 0.921 | 0.866 | 0.639 | 0.523 |
| ABC-1 | 0.793 | 0.638 | 0.608 | 1.03 | 0.684 | – | – | – | – | – | 0.929 | 1.07 | 0.98 | 1.23 | 1.08 | – | – | – | – | – |
| BEN | 0.726 | 0.636 | 0.66 | 0.621 | 0.657 | 0.737 | 0.795 | 0.584 | 0.693 | 0.665 | 0.75 | 0.762 | 0.697 | 0.752 | 0.637 | 1.18 | 1.04 | 0.79 | 0.63 | 0.441 |
| CAL-12T | 0.632 | 0.617 | 0.632 | 0.673 | 0.49 | 1.2 | 1.27 | 1.17 | 1.32 | 0.412 | – | – | – | – | – | 0.362 | 0.306 | 0.355 | 0.297 | 0.252 |
| COR-L23 | – | – | – | – | – | 0.202 | 0.204 | 0.194 | 0.162 | 0.167 | 0.478 | 0.502 | 0.469 | 0.602 | 0.389 | 0.507 | 0.614 | 0.544 | 0.318 | 0.189 |
| COR-L 105 | – | – | – | – | – | 1.13 | 1.25 | 0.967 | 1.16 | 0.642 | 0.604 | 0.683 | 0.61 | 0.621 | 0.572 | 0.475 | 0.45 | 0.45 | 0.413 | 0.406 |
| ChaGo-K-1 | 0.892 | 0.93 | 0.84 | 0.886 | 0.635 | 0.271 | 0.256 | 0.251 | 0.237 | 0.237 | 0.563 | 0.544 | 0.517 | 0.601 | 0.458 | 0.948 | 0.933 | 0.897 | 0.785 | 0.64 |
| EKVX | 0.9 | 0.869 | 0.747 | 0.709 | 0.578 | 0.436 | 0.396 | 0.486 | 0.382 | 0.323 | 0.335 | 0.321 | 0.325 | 0.383 | 0.567 | 0.364 | 0.344 | 0.261 | 0.252 | 0.227 |
| EMC-BAC-2 | 1.2 | 1.11 | 1.14 | 1.01 | 1.01 | 0.458 | 0.462 | 0.465 | 0.462 | 0.444 | 0.96 | 1.06 | 0.947 | 0.953 | 0.779 | 0.868 | 0.713 | 0.578 | 0.489 | 0.383 |
| EPLC-272H | 0.217 | – | 0.251 | 0.23 | 0.19 | 0.301 | 0.318 | 0.272 | 0.298 | 0.319 | 0.329 | – | 0.386 | 0.382 | 0.376 | 0.351 | 0.342 | 0.319 | 0.27 | 0.182 |
| H3255 | 0.923 | 0.959 | 0.856 | 0.859 | 0.7 | 0.507 | 0.558 | 0.528 | 0.524 | 0.491 | 0.577 | 0.575 | 0.599 | 0.798 | 0.559 | 0.681 | 0.57 | 0.528 | 0.402 | 0.295 |
| HARA | 0.382 | 0.41 | 0.305 | 0.403 | 0.359 | 0.253 | 0.261 | 0.204 | 0.246 | 0.141 | 0.529 | 0.569 | 0.64 | 0.576 | 0.412 | 0.903 | 0.983 | 0.696 | 0.647 | 0.48 |
| HCC-15 | 1.29 | 1.28 | 1.24 | 1.06 | 0.982 | 0.225 | 0.228 | 0.217 | 0.218 | 0.242 | 0.606 | 0.646 | 0.608 | 0.691 | 0.429 | 0.392 | 0.323 | 0.245 | 0.221 | 0.161 |
| HCC-44 | 0.907 | 1.05 | 1.04 | 0.991 | 1.14 | 0.616 | 0.639 | 0.676 | 0.682 | 0.653 | 0.892 | 0.93 | 1.01 | 0.929 | 0.989 | 1.07 | 0.895 | 0.81 | 0.735 | 0.625 |
| HCC-78 | 0.628 | 0.642 | 0.576 | 0.685 | 0.589 | 0.913 | 0.944 | 0.926 | 0.929 | 0.64 | 0.69 | 0.78 | 0.671 | 0.961 | 0.777 | 0.706 | 0.662 | 0.505 | 0.377 | 0.253 |
| HCC-366 | 0.329 | 0.419 | 0.213 | 0.216 | 0.174 | 0.186 | 0.189 | 0.195 | 0.219 | 0.0985 | 0.296 | 0.395 | 0.343 | 0.373 | 0.223 | 0.42 | 0.306 | 0.253 | 0.218 | 0.0673 |
